Test results reported in ChEMBL document CHEMBL1145907, “Requirements for specific binding of low affinity inhibitor fragments to the SH2 domain of (pp60)Src are identical to those for high affinity binding of full length inhibitors” (J Med Chem, 2003).

What follows are compounds tested against Proto-oncogene tyrosine-protein kinase Src (Homo sapiens, UniProt P12931) (assay: Inhibitory activity against SH2 domain of human p60 c-Src tyrosine kinase using surface plasmon resonance (SPR) assay.).
Proto-oncogene tyrosine-protein kinase Src, sequence (P12931 2-536 limits assumed): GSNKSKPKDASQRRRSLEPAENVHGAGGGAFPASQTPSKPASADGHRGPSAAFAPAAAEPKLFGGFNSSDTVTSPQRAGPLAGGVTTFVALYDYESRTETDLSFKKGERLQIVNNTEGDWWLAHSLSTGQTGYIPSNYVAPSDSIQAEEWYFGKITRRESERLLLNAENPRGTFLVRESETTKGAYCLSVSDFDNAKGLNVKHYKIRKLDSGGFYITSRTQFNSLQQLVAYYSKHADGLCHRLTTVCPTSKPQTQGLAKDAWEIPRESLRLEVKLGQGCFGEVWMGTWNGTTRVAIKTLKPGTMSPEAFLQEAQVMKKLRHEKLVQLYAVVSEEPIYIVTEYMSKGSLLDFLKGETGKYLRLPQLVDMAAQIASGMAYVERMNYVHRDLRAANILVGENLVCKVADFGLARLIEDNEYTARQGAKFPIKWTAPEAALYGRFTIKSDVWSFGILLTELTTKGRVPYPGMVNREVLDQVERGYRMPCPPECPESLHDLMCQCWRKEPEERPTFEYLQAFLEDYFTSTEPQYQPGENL

Row | Structure (SMILES) | IC50
1 | O=[N+]([O-])c1cc2c(cc1C(O)P(=O)(O)O)OCO2 (stereo not drawn) | 0.3 mM
2 | O=C(O)CC(O)(CC(=O)O)C(=O)O [CITRIC ACID] | > 40 mM
3 | O=P(O)(O)O [PHOSPHORIC ACID] | > 40 mM
